From US20190008870A1, “COMPOSITIONS AND METHODS FOR LIPID METABOLISM DISORDER” (JANSFAT BIOTECHNOLOGY CO., LTD., priority 2016, published 2019) come the findings set out here.

Assay [1] has as its system mice fed with HFD. Nature of the assay: Serum and liver lipid levels of mice fed with HFD. Format: in vivo. As to the method: (§1) During the 2 month experiments, mice fasted for one night before the experiment was changed from a standard diet (STD) to an HFD and then the mice were randomly divided into 13 groups, including a protection group, 2 control and 10 treatment groups. Six mice were used in each group. […] Liver from the protection group supplemented with KMUP-1 HCl (1 mg/kg/day) were used to determine the HMG CoA reductase expression. Each group of mice had free access to drinking water from week 1 to week 14. Tap water was used to normalize mineral nutrition.
Within 2 months, the 3 day food intake average for each animal was measured. The weight gain and plasma lipid levels of each group were determined and compared to the non-treatment control group. […] Agents used in the assays were obtained from Merck & Co. (Kenilworth, N.J., U.S.A.). Triglyceride (TG), total cholesterol, HDL cholesterol and LDL cholesterol in mouse serum were measured by methods used in the clinic. To measure the hepatic Triglyceride, isolated liver were cut into small chips.

Assay [2] relates to ROCK II. Nature of the assay: HFD-induced ROCK II expression in liver. In kind it is in vivo, mice. The following applies: for ROCK II: HFD mice, CTL 100. How it is done:
as §1, with “In the experiment, C57BL/6J male mice (21-22 g), after fasting, were fed an HFD as a model of hyperlipidemia for 8 weeks. During” for “During”
(§2) For the expression of SR-B1, HMGR, PPARγ and ROCK II, isolated liver tissues were cut into small chips and placed into an extraction buffer (Tris 10 mM, pH 7.0, NaCl 140 mM, PMSF 2 mM, DTT 5 mM, NP-40 0.5%, pepstatin A 0.05 mM and leupeptin 0.2 mM) for hepatic protein extraction, and centrifuged at 20,000×g for 30 minutes. The obtained protein extract was boiled to a ratio of 4:1 with a sample buffer (Tris 100 mM, pH 6.8, glycerol 20%, SDS 4% and bromophenol blue 0.2%). Electrophoresis was performed using 10% SDS-polyacrylamide gel (1 hour, 100 V, 40 mA, 20 μg protein per lane).
(§3) Separated proteins, after 3 repeated centrifugations to discard up-layer tissue lipid in purity, were transferred to PVDF membranes treated with 5% fat-free milk powder to block the nonspecific IgGs (90 minutes, 100 V) and incubated for 1 hour with specific protein antibody. The blot was then incubated with anti-mouse or anti-goat IgG linked to alkaline phosphatase (1:1000) for 1 hour.

The test system of assay [3] is PPARγ. The assay can be described thus: HFD-induced PPARγ expression in liver. Format: in vivo, mice. How it is done: as §1, with “In the experiment, C57BL/6J male mice (21-22 g), after fasting, were fed an HFD as a model of hyperlipidemia for 8 weeks. During” for “During”
as §2, §3

The test system of assay [4] is HMG CoA reductase. Nature of the assay: HMG CoA reductase expression in HepG2 cells (Western blotting). Format: cell-based. As to conditions: for HMGR (%): 24 hours, CTL 100; for HMG CoA expression: Mevalonate (100 μM) + drug (10^−5 M), Control 100. As to the method:
The HepG2 hepatoma cell line was purchased from the American Type Culture Collection (ATCC, Manassas, Va., U.S.A.). Cells were cultured in Dulbecco's Modified Eagle's Medium (DMEM). The culture media was supplemented with 5% heat-inactivated FBS, penicillin (100 U/mL) and streptomycin (100 μg/mL). Cells were grown in a humidified atmosphere containing 5% CO2 at 37° C., in which the oxygen tension in the incubator was held at 140 mmHg (20% O2, v/v; normoxic conditions). […] Then the targeted drugs solution was incubated with the cells for 24 hours, followed by protein extraction. The targeted drugs were added to the […].
HepG2 cells were treated with various concentrations of targeted drugs for 24 hours. Reactions were terminated by washing twice with cold PBS, and the cells were then harvested. Proteins in the whole-cell lysate were homogenized in an ice-cold lysis buffer and a protease inhibitor (Sigma-Aldrich, St. Louis, Mo., U.S.A.). The homogenate was centrifuged at 90,000×g for 15 minutes at 4° C., and supernatant was recovered as the total cellular protein. Cytosolic and membrane fractions of HepG2 cells were prepared using a CNM (Cytosol Nuclear Membrane) compartmental protein extraction kit (BioChain Institute Inc., Hayward, Calif., U.S.A.) according to the manufacturer's instructions. All of the fractionated protein solutions were stored at −80° C. until analysis. To measure the expression levels of proteins by drugs, the total cell protein was extracted after incubation with treatments for 24 hours and then Western blotting analysis was performed as described previously.
(In general: Immunoblotting shows a protein as a band on a membrane.)

The target of assay [5] is T1, Human recombinant HMG CoA reductase (Homo sapiens, UniProt P04035).
T1 construct: purchased Sigma-Aldrich H7039; host or cells: E. coli
T1 sequence (P04035 426-888 limits assumed): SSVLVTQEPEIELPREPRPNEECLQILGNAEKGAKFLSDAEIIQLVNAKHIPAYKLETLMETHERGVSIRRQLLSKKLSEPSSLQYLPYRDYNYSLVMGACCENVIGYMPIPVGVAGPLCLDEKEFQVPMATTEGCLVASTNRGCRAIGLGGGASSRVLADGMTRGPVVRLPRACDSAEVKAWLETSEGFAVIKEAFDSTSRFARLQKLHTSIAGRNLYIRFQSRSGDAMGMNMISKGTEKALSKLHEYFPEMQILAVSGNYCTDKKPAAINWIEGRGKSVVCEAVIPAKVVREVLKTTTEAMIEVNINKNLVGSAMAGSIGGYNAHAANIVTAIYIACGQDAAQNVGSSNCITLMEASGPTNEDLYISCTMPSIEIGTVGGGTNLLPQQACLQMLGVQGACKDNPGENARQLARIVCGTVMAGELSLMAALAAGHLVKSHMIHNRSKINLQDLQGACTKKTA
The assay can be described thus: HMG CoA reductase activity and [14C]mevalonate formation. In kind it is biochemical. As to the method: Human recombinant HMG CoA reductase expressed in E. coli (H7039, Sigma-Aldrich, MO, U.S.A.) was used. Human recombinant HMG-CoA reductase, examined by SDS-PAGE to be ≥90% in purity, 2-8 units/mg protein in activity and ˜76 kDa in molecular weight (H7039, Sigma-Aldrich, St. Louis, Mo. U.S.A.), was used for determining the formation of [^14C]mevalonate. KMUP-1 and targeted drugs were pre-incubated with 35 ng/ml enzyme in phosphate buffer pH 7.5 for 15 minutes at 37° C. The reaction was initiated by the addition of 2.5 μM [^14C]HMG-CoA for another 20 minutes incubation period and terminated by further addition of 1 N HCl. An aliquot was removed by column and counted to determine the amount of [^14C]mevalonate formed (Ricera® Co. Ltd., Taipei, Taiwan).

Setting [6] is: Simva 5 mg/kg, CTL 100 (Table 9).

For the molecule `Cn1c(=O)c2c(ncn2CCN2CCN(c3ccccc3Cl)CC2)n(C)c1=O` [KMUP-1, 7-[2-[4-(2-chlorophenyl)piperazinyl]ethyl]-1,3-dimethylxanthine], the HDL cholesterol was 103.6 ± 4.2 mg/dL in assay [1] (2.5 mg/kg p.o.) and 118.3 ± 5.7 mg/dL in assay [1] (5 mg/kg p.o.). Moreover, the LDL cholesterol amounted to 14.2 ± 1.4 mg/dL in assay [1] (2.5 mg/kg p.o.) and 14.2 ± 2.2 mg/dL in assay [1] (5 mg/kg p.o.). Moreover, the entries for the “TG in serum (Triacylglycerol)” value in assay [1] (2.5 mg/kg p.o.) and in assay [1] (5 mg/kg p.o.) were 74.5 ± 5.1 mg/dL and 72.7 ± 4.7 mg/dL, respectively. The figures for the TG of liver in assay [1] (2.5 mg/kg p.o.) and in assay [1] (5 mg/kg p.o.) were 28.4 ± 3.6 mg/dL and 26.12 ± 3.1 mg/dL, respectively. Also, the results for the “Tot. chol. (total cholesterol)” value in assay [1] (2.5 mg/kg p.o.) and in assay [1] (5 mg/kg p.o.) were 133.0 ± 5.1 mg/dL and 125.5 ± 9.8 mg/dL, respectively. For the same molecule, the HDL chol. in assay [1] (Dose 2.5 mg/kg (Table 2)) was 103.6 ± 4.2 mg/dL; in assay [1] (Dose 5 mg/kg (Table 2)) it was 118.3 ± 5.7 mg/dL. The LDL chol. in assay [1] (Dose 2.5 mg/kg (Table 2)) turned out to be 14.2 ± 1.4 mg/dL; in assay [1] (Dose 5 mg/kg (Table 2)), 14.2 ± 2.2 mg/dL. The TG in assay [1] (Dose 2.5 mg/kg (Table 2)) is 74.5 ± 5.1 mg/dL; in assay [1] (Dose 5 mg/kg (Table 2)), 72.67 ± 4.7 mg/dL. Moreover, the results for the Tot. chol. in assay [1] (Dose 2.5 mg/kg (Table 2)) and in assay [1] (Dose 5 mg/kg (Table 2)) were 133 ± 5.1 mg/dL and 125.5 ± 9.8 mg/dL, respectively. Besides, the HFD-induced hypercholesterolemia result in assay [1] (supplementation) is “significantly improved”. Also, the “ROCK II” value in assay [2] (1 mg/kg) was found to be 30%; in assay [2] (2.5 mg/kg), 25%; in assay [2] (5 mg/kg), 10%. Besides, the PPARγ was 53% in assay [3] (HFD mice, 1 mg/kg, CTL 100); 249% in assay [3] (HFD mice, 2.5 mg/kg, CTL 100); 245% in assay [3] (HFD mice, 5 mg/kg, CTL 100). Besides, the “HMGR (%)” value was 270% in assay [4] (10^−5 M); 220% in assay [4] (10^−6 M); 210% in assay [4] (10^−7 M); 125% in assay [4] (10^−8 M); 120% in assay [4] (10^−9 M). Further, the “HMG CoA expression” value in assay [4] amounted to 62%. In assay [5] (10 μM), the “[14C]mevalonate formation” value is given as “could not reduce”.

Take `CCC(C)(C)C(=O)O[C@H]1C[C@@H](C)C=C2C=C[C@H](C)[C@H](CC[C@@H]3C[C@@H](O)CC(=O)O3)[C@H]21` [Simva, Simvastatin, reference compound]: in assay [1] (Dose 5 mg/kg (Table 2)), the HDL chol. was 108.4 ± 1.3 mg/dL, the LDL chol. amounted to 17.3 ± 1.4 mg/dL, the TG stood at 81.2 ± 4.4 mg/dL and the Tot. chol. was 129.7 ± 1.4 mg/dL. Further, in assay [2] (setting [6]), the ROCKII came to 43%. Besides, the PPARγ in assay [3] (setting [6]) is 280%. Also, the “HMGR (%)” value in assay [4] (10^−5 M) is given as 280%. Further, the “HMGR (%)” value in assay [4] (10^−8 M) came to 152%. Moreover, the “HMGR (%)” value in assay [4] (10^−9 M) is on record as 150%. Further, the “HMG CoA expression” value in assay [4] turned out to be 50%. For the same molecule, in assay [5] (compared to the vehicle group), the “inhibition of [14C]mevalonate formation” value is reported as 86.6±4.2%.
